Experimental data as given in patent US9533040B2, “Inhibition of human immunodeficiency virus integrase reaching dimer formation utilizing single-chain variable antibodies” (priority 2010, dated 2017).

Columns and labels:
ASV IN = ASV IN (Rous sarcoma virus subgroup C, UniProt P03354, K1536E/R1446K/V1381A); details: previous studies; cited from earlier work
HIV IN = HIV IN (Human immunodeficiency virus type 1 group M subtype B, UniProt P12497); details: previous studies; cited from earlier work
HIV IN (F181T) dimer = target: T1, HIV IN (F181T) dimer (Human immunodeficiency virus type 1 group M subtype B, UniProt P12497, F1328T); assay: FRET multimerization assay (reaching dimer formation); format: binding; details: each at 1 μM; HIV IN (F181T) at 2 μM; relative to untreated control
T1 construct: made in house
Procedure: The effects of monoclonal antibodies and four small molecule inhibitors (each at 1 μM) are shown.
A multimerization assay based on fluorescence resonance energy transfer (FRET) between donor and acceptor dyes attached to C280 in HIV IN was used. The F181T substitution was introduced in order to monitor reaching dimer formation specifically (see Table 1 and FIGS. 9 and 11). One preparation was labeled with a donor fluorophore (Cy3) and a second with the acceptor (Cy5). Upon mixing (final conc. IN between 0.5 to 2 μM) and equilibration, the FRET efficiency obtained is consistent with the expected apparent distance of 60-65 Å in a reaching dimer. The Z′ factor of 0.7 obtained with this assay is in the “excellent” range for high throughput screening, and additional adjustments (e.g., use of alternative dye pairs, filter changes) may allow us to improve sensitivity even further. To validate the assay, the effects of monoclonal antibodies specific for the CTD (mAb33) or NTD (mAb17) of HIV IN were tested (FIG. 31). […] These preliminary results support the notion that compounds that either stabilize or block reaching dimer formation can result in inhibition of catalysis by IN.

ASV IN, sequence (P03354 1281-1566 V1381A/R1446K/K1536E): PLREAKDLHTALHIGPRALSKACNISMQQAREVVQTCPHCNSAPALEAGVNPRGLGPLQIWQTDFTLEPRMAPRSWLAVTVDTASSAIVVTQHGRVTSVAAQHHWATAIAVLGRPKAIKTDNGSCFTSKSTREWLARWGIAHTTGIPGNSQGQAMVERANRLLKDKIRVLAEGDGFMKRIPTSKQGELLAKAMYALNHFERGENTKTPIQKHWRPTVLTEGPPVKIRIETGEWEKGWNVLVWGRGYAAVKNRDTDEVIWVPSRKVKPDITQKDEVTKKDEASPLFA

Molecule | inhibition of ASV IN (ASV IN) | inhibition of HIV IN (HIV IN) | effect on FRET-monitored IN self-association (reaching dimer formation) (HIV IN (F181T) dimer)
2BrNSA | robust inhibition | robust inhibition | –
mAb33: monoclonal antibody specific for the CTD of HIV IN; single chain Fv sequence SEQ ID NO:194 (protein, listed as Mus musculus) scFv: MKYLLPTAAAGLLLLAAQPAMAMGHHHHHHHHHHSSGHIDDDDKHMDIQMTQSPSSLSASLGGKVTITCKASQDIYKYIAWYQHKPGKGPRLLIHYTSTLQPGIPSRFSGSGSGRDYSFSISNLEPEDIATYYCLQYDNLWTFGGGTKLEIKRADAAPTVSIFPPSSKLGPGGGGSGGGGSGGGGSELGRSEVKLVESGGGLVKPGGSLKLSCAASGFSFSSYAMSWVRQTPEKRLEWVASISSGGNTYYPDSVKGRFTISRDNARNILYLQMSSLRSEDTAMYYCARLDTTVEGDWYFDVWGAGTTLTVSS | – | – | inhibit FRET-monitored self-association
mAb17: monoclonal antibody specific for the NTD of HIV IN; single chain Fv sequence SEQ ID NO:195 (protein, listed as Mus musculus) scFv: MKYLLPTAAAGLLLLAAQPAMAMGHHHHHHHHHHSSGHIDDDDKHMDVWLTQTPLSLPVSLGDQASISCRSSQTFVHSDGNTYLEWYLQKPGQSPKLLIYKISNRFSGVPDRFSGSGSGTDFTLKISGVEAEDLGLYYCFQGSHVPFTFGSGTKLEIRRADAAPTVSIFPPSSKLGPGGGGSGGGGSGGGGSELGRSQVQLQQSGAELVRPGASVTLSCKASGYTFIEYEMHWVKQAPVHGLEWIGAVDPETGGTAYNQKFKGKAILTADKSSSTGYMELRSLTSESSAVYYCARQGLGYWGQGTLVTVSA | – | – | inhibit FRET-monitored self-association
